Where two headings read alike, the source gives them in different places.

Assay type in all cases: cell-based
The test system of one test is HIV-1 pNL4-3 V7A. Briefly: Antiviral activity against pNL4-3/V7A strain in MT4 cells (p24 estimation). The settings on record: Human immunodeficiency virus 1, MT4, 96 h, read-out: pNL4-3 V7A IC50. On the procedure:
(§1) Example 78: Evaluation of Compounds Antiviral Activity Against pNL4-3/WT & V7A Strains in MT4 Cells
(§2) MT4 cells were Transfected with HIV-1 Plasmid (pNL4-3-WT & V7A) (Cells were incubating with required number of TCID50 of HIV-1 for 1.5 h at 37° C.). After infection, the infected cells were plated at the concentration of 3×10^4 cells per well in 96 well plate. Test compound was added to the test plate in defined format with the final concentration of DMSO is not more than 1%. Incubation was carried out in CO2 incubator for 4 days for viral infection. At the end of incubation period an aliquot from each well was taken for p24 estimation. p24 estimation was carried out using Advance biosciences kit as per the procedure detailed by supplier.

The next test relates to HIV-1 strain 92HT599. The test can be described thus: Antiviral activity against HIV-1 strain 92HT599 in MT2 cells (p24 estimation). The settings on record: HIV-1 92HT599, ~96 hours. The procedure, abridged: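 Percent inhibition versus vehicle controls came from p24 quantified in supernatant aliquots. These were taken after ~96 h incubation of compound (DMSO ≤1%) with MT2 cells infected at 10 TCID50/30,000 cells.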

The subject of the next test is HIV-1 pNL4-3 WT. The test can be described thus: Antiviral activity against pNL4-3/WT strain in MT4 cells (p24 estimation). As to conditions: Human immunodeficiency virus 1, MT4, 96 h, read-out: pNL4-3 WT IC50. On the procedure: as §1, §2
The mark [1] stands for this setting: Human immunodeficiency virus 1, 0% serum binding assay, read-out: IC50 0% serum.
The mark [2] stands for this setting: Human immunodeficiency virus 1, 40% serum binding assay, read-out: IC50 40% serum.

As to `CC(C)C1=C2[C@H]3CC[C@@H]4[C@@]5(C)CC[C@H](OC(=O)[C@H]6C[C@@H](C(=O)O)C6(C)C)C(C)(C)[C@@H]5CC[C@@]4(C)[C@]3(C)CC[C@@]2(NC(=O)C(C)(C)NC(=O)c2ccc(Cl)cc2)CC1=O` [Example 1, (1R,3S)-3-((((3aR,5aR,5bR,7aR,9S,11aR,11bR,13aS)-3a-(2-(4-chlorobenzamido)-2-methylpropanamido)-1-isopropyl-5a,5b,8,8,11a-pentamethyl-2-oxo-3,3a,4,5,5a,5b,6,7,7a,8,9,10,11,11a,11b,12,13,13a-octadecahydro-2H-cyclopenta[a]chrysen-9-yl)oxy)carbonyl)-2,2-dimethylcyclobutane-1-carboxylic acid], the IC50 (commonly the concentration at which inhibition is half-maximal) in the test with HIV-1 pNL4-3 V7A was less than 10 nM; in the test on HIV-1 strain 92HT599 (setting [1]), less than 3 nM; in the test on HIV-1 strain 92HT599 (setting [2]), less than 50 nM; in the test on HIV-1 pNL4-3 WT, less than 5 nM.
`CC(C)C1=C2[C@H]3CC[C@@H]4[C@@]5(C)CC[C@H](OC(=O)[C@H]6C[C@@H](C(=O)O)C6(C)C)C(C)(C)[C@@H]5CC[C@@]4(C)[C@]3(C)CC[C@@]2(NC(=O)C(C)(C)NC(=O)c2cnccn2)CC1=O` [Example 5, (1R,3S)-3-((((3aR,5aR,5bR,7aR,9S,11aR,11bR,13aS)-1-isopropyl-5a,5b,8,8,11a-pentamethyl-3a-(2-methyl-2-(pyrazine-2-carboxamido)propanamido)-2-oxo-3,3a,4,5,5a,5b,6,7,7a,8,9,10,11,11a,11b,12,13,13a-octadecahydro-2H-cyclopenta[a]chrysen-9-yl)oxy)carbonyl)-2,2-dimethylcyclobutane-1-carboxylic acid]: the IC50 with HIV-1 pNL4-3 V7A is less than 10 nM; in the test with HIV-1 strain 92HT599 (setting [1]) it was less than 3 nM; in the test with HIV-1 strain 92HT599 (setting [2]), 50 to 200 nM; in the test on HIV-1 pNL4-3 WT, less than 5 nM.
For `Cc1cnc(C(=O)NC(C)(C)C(=O)N[C@@]23CC[C@]4(C)[C@H](CC[C@@H]5[C@@]6(C)CC[C@H](OC(=O)[C@H]7C[C@@H](C(=O)O)C7(C)C)C(C)(C)[C@@H]6CC[C@]54C)C2=C(C(C)C)C(=O)C3)cn1` [Example 7, (1R,3S)-3-((((3aR,5aR,5bR,7aR,9S,11aR,11bR,13aS)-1-isopropyl-5a,5b,8,8,11a-pentamethyl-3a-(2-methyl-2-(5-methylpyrazine-2-carboxamido)propanamido)-2-oxo-3,3a,4,5,5a,5b,6,7,7a,8,9,10,11,11a,11b,12,13,13a-octadecahydro-2H-cyclopenta[a]chrysen-9-yl)oxy)carbonyl)-2,2-dimethylcyclobutane-1-carboxylic acid], in that order: less than 10 nM, less than 3 nM, less than 50 nM and less than 5 nM.
In the same order, the values of `Cc1nc(C)c(C(=O)NC(C)(C)C(=O)N[C@@]23CC[C@]4(C)[C@H](CC[C@@H]5[C@@]6(C)CC[C@H](OC(=O)[C@H]7C[C@@H](C(=O)O)C7(C)C)C(C)(C)[C@@H]6CC[C@]54C)C2=C(C(C)C)C(=O)C3)s1` [Example 14, (1R,3S)-3-((((3aR,5aR,5bR,7aR,9S,11aR,11bR,13aS)-3a-(2-(2,4-dimethylthiazole-5-carboxamido)-2-methylpropanamido)-1-isopropyl-5a,5b,8,8,11a-pentamethyl-2-oxo-3,3a,4,5,5a,5b,6,7,7a,8,9,10,11,11a,11b,12,13,13a-octadecahydro-2H-cyclopenta[a]chrysen-9-yl)oxy)carbonyl)-2,2-dimethylcyclobutane-1-carboxylic acid] are 10 to 50 nM, less than 3 nM, less than 50 nM and less than 5 nM.
In the case of `CC(C)C1=C2[C@H]3CC[C@@H]4[C@@]5(C)CC[C@H](OC(=O)[C@H]6C[C@@H](C(=O)O)C6(C)C)C(C)(C)[C@@H]5CC[C@@]4(C)[C@]3(C)CC[C@@]2(NC(=O)C(C)(C)NC(=O)c2ccc3[nH]c(-c4cnccn4)nc3c2)CC1=O` [Example 15, (1R,3S)-3-((((3aR,5aR,5bR,7aR,9S,11aR,11bR,13aS)-1-isopropyl-5a,5b,8,8,11a-pentamethyl-3a-(2-methyl-2-(2-(pyrazin-2-yl)-1H-benzo[d]imidazole-5-carboxamido)propanamido)-2-oxo-3,3a,4,5,5a,5b,6,7,7a,8,9,10,11,11a,11b,12,13,13a-octadecahydro-2H-cyclopenta[a]chrysen-9-yl)oxy)carbonyl)-2,2-dimethylcyclobutane-1-carboxylic acid], the IC50 was more than 50 nM in the test with HIV-1 pNL4-3 V7A, less than 3 nM with HIV-1 strain 92HT599 (setting [1]), less than 50 nM in the test on HIV-1 strain 92HT599 (setting [2]) and less than 5 nM in the test with HIV-1 pNL4-3 WT.
In the case of `CC(C)C1=C2[C@H]3CC[C@@H]4[C@@]5(C)CC[C@H](OC(=O)[C@H]6C[C@@H](C(=O)O)C6(C)C)C(C)(C)[C@@H]5CC[C@@]4(C)[C@]3(C)CC[C@@]2(NC(=O)C(C)(C)NC(=O)c2nccn2C)CC1=O` [Example 16, (1R,3S)-3-((((3aR,5aR,5bR,7aR,9S,11aR,11bR,13aS)-1-isopropyl-5a,5b,8,8,11a-pentamethyl-3a-(2-methyl-2-(1-methyl-1H-imidazole-2-carboxamido)propanamido)-2-oxo-3,3a,4,5,5a,5b,6,7,7a,8,9,10,11,11a,11b,12,13,13a-octadecahydro-2H-cyclopenta[a]chrysen-9-yl)oxy)carbonyl)-2,2-dimethylcyclobutane-1-carboxylic acid], the IC50 with HIV-1 pNL4-3 V7A is more than 50 nM; with HIV-1 strain 92HT599 (setting [1]), less than 3 nM; in the test on HIV-1 strain 92HT599 (setting [2]), 50 to 200 nM; in the test on HIV-1 pNL4-3 WT, 5.01 to 10 nM.
For `CC(C)C1=C2[C@H]3CC[C@@H]4[C@@]5(C)CC[C@H](OC(=O)[C@H]6C[C@@H](C(=O)O)C6(C)C)C(C)(C)[C@@H]5CC[C@@]4(C)[C@]3(C)CC[C@@]2(NC(=O)C(C)(C)NC(=O)c2cc(C(C)C)n[nH]2)CC1=O` [Example 17, (1R,3S)-3-((((3aR,5aR,5bR,7aR,9S,11aR,11bR,13aS)-1-isopropyl-3a-(2-(3-isopropyl-1H-pyrazole-5-carboxamido)-2-methylpropanamido)-5a,5b,8,8,11a-pentamethyl-2-oxo-3,3a,4,5,5a,5b,6,7,7a,8,9,10,11,11a,11b,12,13,13a-octadecahydro-2H-cyclopenta[a]chrysen-9-yl)oxy)carbonyl)-2,2-dimethylcyclobutane-1-carboxylic acid], in that order: less than 10 nM, less than 3 nM, less than 50 nM and less than 5 nM.
Consider `CC(C)C1=C2[C@H]3CC[C@@H]4[C@@]5(C)CC[C@H](OC(=O)[C@H]6C[C@@H](C(=O)O)C6(C)C)C(C)(C)[C@@H]5CC[C@@]4(C)[C@]3(C)CC[C@@]2(NC(=O)C(C)(C)NC(=O)c2ccc(N3CCOCC3)cc2)CC1=O` [Example 18, (1R,3S)-3-((((3aR,5aR,5bR,7aR,9S,11aR,11bR,13aS)-1-isopropyl-5a,5b,8,8,11a-pentamethyl-3a-(2-methyl-2-(4-morpholinobenzamido)propanamido)-2-oxo-3,3a,4,5,5a,5b,6,7,7a,8,9,10,11,11a,11b,12,13,13a-octadecahydro-2H-cyclopenta[a]chrysen-9-yl)oxy)carbonyl)-2,2-dimethylcyclobutane-1-carboxylic acid], for which the IC50 in the test on HIV-1 pNL4-3 V7A is less than 10 nM; in the test with HIV-1 strain 92HT599 (setting [1]) it was less than 3 nM; with HIV-1 strain 92HT599 (setting [2]), less than 50 nM; in the test on HIV-1 pNL4-3 WT, less than 5 nM.
As to `Cc1noc(C)c1C(=O)NC(C)(C)C(=O)N[C@@]12CC[C@]3(C)[C@H](CC[C@@H]4[C@@]5(C)CC[C@H](OC(=O)[C@H]6C[C@@H](C(=O)O)C6(C)C)C(C)(C)[C@@H]5CC[C@]43C)C1=C(C(C)C)C(=O)C2` [Example 19, (1R,3S)-3-((((3aR,5aR,5bR,7aR,9S,11aR,11bR,13aS)-3a-(2-(3,5-dimethylisoxazole-4-carboxamido)-2-methylpropanamido)-1-isopropyl-5a,5b,8,8,11a-pentamethyl-2-oxo-3,3a,4,5,5a,5b,6,7,7a,8,9,10,11,11a,11b,12,13,13a-octadecahydro-2H-cyclopenta[a]chrysen-9-yl)oxy)carbonyl)-2,2-dimethylcyclobutane-1-carboxylic acid], the IC50 in the test on HIV-1 pNL4-3 V7A was less than 10 nM; in the test on HIV-1 strain 92HT599 (setting [1]), less than 3 nM; with HIV-1 strain 92HT599 (setting [2]) it was less than 50 nM; in the test on HIV-1 pNL4-3 WT, less than 5 nM.
In the case of `Cc1cccnc1C(=O)NC(C)(C)C(=O)N[C@@]12CC[C@]3(C)[C@H](CC[C@@H]4[C@@]5(C)CC[C@H](OC(=O)[C@H]6C[C@@H](C(=O)O)C6(C)C)C(C)(C)[C@@H]5CC[C@]43C)C1=C(C(C)C)C(=O)C2` [Example 29, (1R,3S)-3-((((3aR,5aR,5bR,7aR,9S,11aR,11bR,13aS)-1-isopropyl-5a,5b,8,8,11a-pentamethyl-3a-(2-methyl-2-(3-methylpicolinamido)propanamido)-2-oxo-3,3a,4,5,5a,5b,6,7,7a,8,9,10,11,11a,11b,12,13,13a-octadecahydro-2H-cyclopenta[a]chrysen-9-yl)oxy)carbonyl)-2,2-dimethylcyclobutane-1-carboxylic acid], the IC50 is 10 to 50 nM in the test on HIV-1 pNL4-3 V7A and less than 5 nM with HIV-1 pNL4-3 WT.
